Experimental data reported in patent US9353067B2, “Heterocyclic compounds and uses thereof in the treatment of sexual disorders” (ATIR Holding S.A., priority 2011, dated 2016).

Experiments:
PARP-1 = PARP-1 (Homo sapiens (Human), UniProt P09874); test: Universal Chemiluminescent PARP Assay; assay type: biochemical; conditions: average results from two assays
Procedure: In addition, R-55 and its hydrochloride salt were assayed for PARP (poly(ADP-ribose)polymerase) inhibitory activity, as some quinazolinone derivatives, particularly derivatives comprising quinazolinone linked via a three-carbon moiety to substituted pyridinyl and piperazinyl moieties, have been identified as potent PARP inhibitors [U.S. Patent Application Publication No. 2004/0077667; Iwashita et al., FEBS Lett 579:1389-1393(2005); Hattori et al., J Med Chem 47:4151-4154(2004)]. PARP plays a natural role in repair of DNA damage, and inhibition of PARP may lead to undesirable side effects in any treatment of a sexual disorder.
Inhibition of PARP-1 was assayed using a Universal Chemiluminescent PARP Assay (Trevigen, Inc.).
The tested compounds were diluted from 2.1 mg of powder in 25 μl of DMSO. The tested compounds were diluted to 100 μM in 1% DMSO/99% ethanol. 3-Aminobenzamide (3-AB), a commercially available weak PARP inhibitor, was used as a positive control. The activity of PARP was quantified as relative light units (RLU). Each of the tested compounds was assayed twice.
In Assay 1, the 100 μM stock solution was diluted to 40 μM in 1×PARP buffer. The compounds were then serially diluted down to 0.4 μM. Each tested compound was
further diluted 1:4 during the assay, so the final concentrations ranged from 10 μM to 0.1 μM.
In Assay 2, the 100 μM stock was added to 1×PARP buffer to prepare samples with concentrations ranging from 40 μM to 2 μM. A 10 μM stock solution was added to 1×PARP buffer to prepare samples with concentrations of 1 μM and 0.4 μM. Each tested compound was further diluted 1:4 during the assay, so the final concentrations ranged from 10 μM to 0.1 μM.

[1] = Hydrolysis (half-life) of esterified derivatives of R-55 in human plasma; assay type: in vitro ADME; conditions: for half-life at 0.19 mg/ml: fresh human plasma, hydrolysis of ester to R-55, human plasma, read-out: T1/2 in human plasma; for half-life at 0.19 mg/ml / % L-207 (hydrolysis of L-207 to R-55): 37° C.; for rate of hydrolysis (in words): human and rat plasma, comparison of acyl moieties; for % L-207 (hydrolysis of L-207 to R-55): human plasma
Procedure: (§1) 50 μl of dimethyl sulfoxide containing 0.2 mg of the tested derivative was added to 1 ml of fresh plasma (human or rat) in a sterile Eppendorf tube. The samples were then incubated at 37° C., and 100 μl samples were removed at various times, up to 120 minutes after incubation. The plasma samples were immediately added to 1 ml acetonitrile. After vigorous mixing by vortex, the samples were centrifuged for 10 minutes at 2000 rotations per minute at 4° C. 0.95 ml of the supernatant was then removed and stored at −20° C. until determination of the concentrations of R-55 and its esterified derivative by LCMS analysis.

[2] = Hydrolysis (half-life) of esterified derivatives of R-55 in rat plasma; assay type: in vitro ADME; conditions: 37° C.; for half-life at 0.19 mg/ml: fresh rat plasma, hydrolysis of ester to R-55, rat plasma, read-out: T1/2 in rat plasma; for % L-207 (hydrolysis of L-207 to R-55): rat plasma
Procedure: as §1

[3] = Solubility of L-207 in solvents; assay type: physicochemical
Source text: The compound was soluble in dimethylformamide, dimethyl sulfoxide, tetrahydrofuran, chloroform, dichloromethane, and HCl in diethyl ether, and non-soluble in water.

[4] = target: D4.4 type dopamine receptor (Homo sapiens (Human), UniProt P21917); test: Competitive binding to D4.4 receptor ([3H]-YM-09151-2); conditions: human recombinant receptor in CHO cells, [3H]-YM-09151-2 0.3 nM
Procedure: R-55 (which comprises a 3-hydroxyphenyl moiety) and its isomers L-221 (comprising a 4-hydroxyphenyl moiety) and L-238 (comprising a 2-hydroxyphenyl moiety) were assayed for competitive binding to D2 SHORT and D4.4 type dopamine receptors, in order to assess their efficacy for treating sexual disorders. Both receptor types are expressed as human recombinant proteins in CHO cells, as described, for example, in Jarvis et al. (1973); Van Tol et al. (1991) and Van Tol et al. (1992).
Determination of binding to D4.4 receptor was performed using [^3H]-YM-09151-2 (70-87 Ci/mmol, 0.3 nM), as a radioligand, in the presence of various concentrations of the tested compound. Reactions were carried out in 50 mM TRIS-HCl (pH 7.4) containing 5 mM MgCl2, 5 mM EDTA, 5 mM KCl and 1.5 mM CaCl2, for 60 minutes at 22° C. The reaction was terminated by rapid vacuum filtration onto glass fiber filters. Radioactivity trapped onto the filters was determined (counted) and compared to control values in order to accurately evaluate any interaction of the tested compound(s) with the cloned dopamine D4.4 binding site.

Sequence of PARP-1 (P09874 whole entry): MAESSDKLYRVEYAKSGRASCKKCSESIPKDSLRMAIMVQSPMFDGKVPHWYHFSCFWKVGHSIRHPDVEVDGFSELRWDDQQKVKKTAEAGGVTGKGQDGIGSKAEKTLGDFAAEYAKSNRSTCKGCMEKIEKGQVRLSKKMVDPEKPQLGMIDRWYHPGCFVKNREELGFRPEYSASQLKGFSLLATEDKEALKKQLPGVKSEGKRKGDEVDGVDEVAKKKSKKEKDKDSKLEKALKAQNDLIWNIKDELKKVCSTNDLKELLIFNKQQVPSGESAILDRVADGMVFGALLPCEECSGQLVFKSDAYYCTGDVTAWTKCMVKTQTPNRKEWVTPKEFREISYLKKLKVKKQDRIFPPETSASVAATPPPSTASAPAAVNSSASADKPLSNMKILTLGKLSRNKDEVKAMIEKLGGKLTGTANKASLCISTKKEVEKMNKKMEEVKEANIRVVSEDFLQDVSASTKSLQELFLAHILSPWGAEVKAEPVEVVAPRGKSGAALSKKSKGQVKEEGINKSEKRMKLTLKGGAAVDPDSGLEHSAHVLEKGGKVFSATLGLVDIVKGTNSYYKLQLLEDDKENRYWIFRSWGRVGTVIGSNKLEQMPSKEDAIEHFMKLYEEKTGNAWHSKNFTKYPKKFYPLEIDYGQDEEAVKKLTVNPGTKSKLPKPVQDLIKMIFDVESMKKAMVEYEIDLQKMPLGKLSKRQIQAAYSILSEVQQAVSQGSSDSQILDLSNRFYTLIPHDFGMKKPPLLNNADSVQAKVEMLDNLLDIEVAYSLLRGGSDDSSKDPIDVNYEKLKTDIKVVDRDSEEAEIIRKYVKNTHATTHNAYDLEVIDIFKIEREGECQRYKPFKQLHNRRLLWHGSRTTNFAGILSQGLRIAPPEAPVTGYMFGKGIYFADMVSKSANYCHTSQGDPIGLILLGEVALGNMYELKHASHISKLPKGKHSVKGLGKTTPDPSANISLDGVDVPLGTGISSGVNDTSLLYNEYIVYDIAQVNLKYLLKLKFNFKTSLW
Sequence of D4.4 type dopamine receptor (P21917 whole entry): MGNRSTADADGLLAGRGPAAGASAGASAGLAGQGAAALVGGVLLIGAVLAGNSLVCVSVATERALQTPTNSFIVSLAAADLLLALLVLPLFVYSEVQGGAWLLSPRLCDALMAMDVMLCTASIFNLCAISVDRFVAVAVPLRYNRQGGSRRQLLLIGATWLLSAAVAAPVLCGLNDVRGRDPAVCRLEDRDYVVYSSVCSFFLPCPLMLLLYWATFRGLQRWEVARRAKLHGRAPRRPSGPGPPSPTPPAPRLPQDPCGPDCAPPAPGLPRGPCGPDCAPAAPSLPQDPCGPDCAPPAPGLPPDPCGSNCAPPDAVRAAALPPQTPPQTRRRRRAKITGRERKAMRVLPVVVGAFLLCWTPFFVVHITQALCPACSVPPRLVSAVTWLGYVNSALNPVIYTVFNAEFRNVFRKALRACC

| Compound | half-life at 0.19 mg/ml [1] | rate of hydrolysis (in words) [1] | half-life at 0.19 mg/ml [2] | other results |
| --- | --- | --- | --- | --- |
| NC(=O)c1cccc(N)c1 [Compound 3-AB, 3-Aminobenzamide, reference compound] | – | – | – | inhibition at 5 µM (PARP-1; 5 μM): 21%; inhibition at 10 µM (PARP-1; 10 μM): 40% |
| CCC(=O)Oc1cccc(N2CCN(Cc3nc4ccccc4c(=O)[nH]3)CC2)c1 [Compound L-128] | 10 min | relatively rapid hydrolysis | 0.31 min | – |
| COc1ccc(C(=O)Oc2cccc(N3CCN(Cc4nc5ccccc5c(=O)[nH]4)CC3)c2)cc1 [Compound L-162] | 377 min | slower hydrolysis than exhibited by the corresponding non-substituted aryl | 54 min | – |
| Cc1ccc(S(=O)(=O)Oc2cccc(N3CCN(Cc4nc5ccccc5c(=O)[nH]4)CC3)c2)cc1 [Compound L-163] | > 1000 min | considerably slower hydrolysis than carboxyl esters | > 1000 min | – |
| CS(=O)(=O)Oc1cccc(N2CCN(Cc3nc4ccccc4c(=O)[nH]3)CC2)c1 [Compound L-164] | > 1000 min | considerably slower hydrolysis than carboxyl esters | > 1000 min | – |
| N#Cc1cccc(C(=O)Oc2cccc(N3CCN(Cc4nc5ccccc5c(=O)[nH]4)CC3)c2)c1 [Compound L-166] | 480 min | – | 7.1 min | – |
| O=C(Oc1cccc(N2CCN(Cc3nc4ccccc4c(=O)[nH]3)CC2)c1)C12CC3CC(CC(C3)C1)C2 [Compound L-167] | 750 min | relatively slow hydrolysis | 58 min | – |
| O=C(Oc1cccc(N2CCN(Cc3nc4ccccc4c(=O)[nH]3)CC2)c1)C1CCCCC1 [Compound L-169] | 41 min | relatively rapid hydrolysis | 4.7 min | – |
| COc1ccc(CC(=O)Oc2cccc(N3CCN(Cc4nc5ccccc5c(=O)[nH]4)CC3)c2)cc1 [Compound L-170] | 280 min | – | 7.5 min | – |
| CCOc1ccc(C(=O)Oc2cccc(N3CCN(Cc4nc5ccccc5c(=O)[nH]4)CC3)c2)cc1 [Compound L-173] | > 1000 min | considerably slower hydrolysis | 16.5 min | – |
| COc1ccccc1C(=O)Oc1cccc(N2CCN(Cc3nc4ccccc4c(=O)[nH]3)CC2)c1 [Compound L-174] | 455 min | slower hydrolysis than exhibited by the corresponding non-substituted aryl | 52 min | – |
| Cc1ccccc1C(=O)Oc1cccc(N2CCN(Cc3nc4ccccc4c(=O)[nH]3)CC2)c1 [Compound L-199] | > 1000 min | – | 44 min | – |
| O=C(Oc1cccc(N2CCN(Cc3nc4ccccc4c(=O)[nH]3)CC2)c1)c1ccccc1 [Compound L-207] | 134 min | relatively rapid hydrolysis | 29 min | % L-207 (hydrolysis of L-207 to R-55) ([1]; 10 minutes): 97.54%; % L-207 (hydrolysis of L-207 to R-55) ([1]; 30 minutes): 89.21%; % L-207 (hydrolysis of L-207 to R-55) ([1]; 60 minutes): 77.11%; % L-207 (hydrolysis of L-207 to R-55) ([1]; 90 minutes): 64.67%; % L-207 (hydrolysis of L-207 to R-55) ([1]; 120 minutes): 52.91%; % L-207 (hydrolysis of L-207 to R-55) ([2]; 0 minutes): 99.49%; % L-207 (hydrolysis of L-207 to R-55) ([2]; 15 minutes): 74.08%; % L-207 (hydrolysis of L-207 to R-55) ([2]; 30 minutes): 47.73%; % L-207 (hydrolysis of L-207 to R-55) ([2]; 60 minutes): 6.61%; % L-207 (hydrolysis of L-207 to R-55) ([2]; 90 minutes): 0.76%; % L-207 (hydrolysis of L-207 to R-55) ([2]; 120 minutes): 0.41%; solubility in organic solvents ([3]; dimethylformamide, dimethyl sulfoxide, tetrahydrofuran, chloroform, dichloromethane, HCl in diethyl ether): soluble; solubility in water ([3]; water): non-soluble |
| O=C(Oc1cccc(N2CCN(Cc3nc4ccccc4c(=O)[nH]3)CC2)c1)c1ccc(F)cc1 [Compound L-209] | 470 min | slower hydrolysis than exhibited by the corresponding non-substituted aryl | 35 min | – |
| O=c1[nH]c(CN2CCN(c3ccc(O)cc3)CC2)nc2ccccc12 [Compound L-221, 2-((4-(4-hydroxyphenyl)piperazin-1-yl)methyl)quinazolin-4-one] | – | – | – | IC50 [4]: ~30 µM |
